This is an account of results in article PMC11641365, “Evaluation of In Vitro Biological Activity of Flavanone/Chromanone Derivatives: Molecular Analysis of Anticancer Mechanisms in Colorectal Cancer” (International Journal of Molecular Sciences, 2024).

What all share (type): cell-based, human
Assay [1] deals with LoVo. The assay can be described thus: Hydrogen peroxide level, H2DCFDA probe. As to conditions: compound at IC50, 24 h; for Increase in H2O2 levels: vs control. How it is done: Cellular H2O2 levels were assessed using 2′,7′-dichlorodihydrofluorescein diacetate (H2DCFDA, Sigma-Aldrich, St. Louis, MO, USA), a well-established fluorogenic probe for intracellular hydrogen peroxide detection. H2DCFDA readily diffuses across the cell membrane and is subsequently hydrolyzed by intracellular esterases to non-fluorescent H2DCF. Oxidation of H2DCF by ROS generates highly fluorescent 2′,7′-dichlorofluorescein (DCF), which accumulates in the cytosol. […] The fluorescence intensity of DCF is directly proportional to the concentration of ROS within the cell.
Cells were seeded in black 96-well fluorometric microplates at a density of 10 × 10^3 cells/mL. […] Following compound incubation, the medium was removed, and the cell monolayers were washed twice with HBSS (140 mM NaCl, 5 mM KCl, 0.8 mM MgCl2, 1.8 mM CaCl2, 1 mM Na2HPO4, 10 mM HEPES, and 1% glucose). A volume of 50 µL of H2DCFDA solution in HBSS (final concentration 5 μM) was added to each well, and the cells were incubated for 30 min in the dark at 37 °C. After incubation with the H2DCFDA, fluorescence measurements were conducted using a Perkin-Elmer LS-5B spectrofluorometer (MA, USA) at the following excitation and fluorescence emission wavelengths: λex = 498 nm/λem = 522 nm. The fluorescence intensity of control cells was arbitrarily assigned a value of 100%. The results were expressed as percentages of control, calculated by comparing the fluorescence intensity ratio of the test samples to controls (100%). The fluorescence of samples was denoted as Δf in relation to the control.

Assay [2] has as its system LoVo. The assay can be described thus: Autophagy induction, monodansylcadaverine (MDC) fluorescence. As to conditions: compound at IC50, 24 h, vs control. As to the method: (§1) Autophagy induction in cells treated with the tested drugs was determined by measuring Monodansylcadaverine (MDC; Sigma-Aldrich; St. Louis, MO, USA) fluorescence according to a modified method described by Vázquez. […] In the cell, MDC accumulates in lipid-rich cell membranes. It has been shown that MDC can be used as a dye for detecting autophagy, as it accumulates in autophagolysosomes as a result of interaction with membrane lipids.
(§2) Cells were seeded in black 96-well fluorometric microplates at a density of 10 × 10^3 cells/mL. […] Following compound incubation, the medium was removed, and the cell monolayers were washed twice with HBSS (140 mM NaCl, 5 mM KCl, 0.8 mM MgCl2, 1.8 mM CaCl2, 1 mM Na2HPO4, 10 mM HEPES, and 1% glucose). A solution of MDC at a final concentration of 50 μM was added to each well and incubated in a CO2 cell culture incubator at 37 °C for 15 min. After incubation with MDC, the probe was removed, and the cells were lysed with 50 μL of lysis buffer (10 mM TRIS-HCl; pH 8 containing 0.1% Triton X-100). After lysis, fluorescence was measured at an excitation wavelength of λex = 390 nm and an emission wavelength of λem = 460 nm using a Perkin-Elmer LS-5B spectrofluorometer (Waltham, MA, USA). In order to normalize the number of cells in individual samples, the amount of DNA was determined by adding 50 μL of EB (final concentration 0.2 mM) to each well after measuring the MCB fluorescence and measuring the EB fluorescence at an excitation wavelength of λex = 530 nm and an emission wavelength of λem = 590 nm. The results were calculated as the ratio of MDC fluorescence to EB fluorescence.

Assay [3] relates to SW620. Described as above. To be noted: compound at IC50, 24 h, vs control. How it is done: as §1, §2
Assay [4] relates to SW620. The assay can be described thus: Mitochondrial membrane potential (ΔΨm), JC-1 probe. As to conditions: compound at IC50, vs control. An excerpt:
Changes in mitochondrial potential in cancer cells exposed to the tested derivatives were monitored using the fluorescent probe JC-1. In non-apoptotic cells, JC-1 aggregates emit red-orange fluorescence. During changes in mitochondrial membrane potential, such as those associated with the initiation of PCD stages (both hyperpolarization and depolarization of mitochondrial membranes), JC-1 is converted to monomers, emitting green fluorescence.
5,5,6,6-Tetrachloro-1,1,3,3-tetraethylbenzimidazolylcarbocyanine iodide (JC-1) is one of the most reliable fluorescent probes used to assess changes in mitochondrial membrane potential (ΔΨ). In living cells with intact mitochondrial membranes, the lipophilic, cationic dye JC-1 penetrates the negatively charged mitochondrial matrix as a monomer, where it forms fluorescent aggregates with red-orange fluorescence (λex = 514 nm, λem = 590). […] The fluorescence ratio of aggregates (λem = 590 nm) and monomers (λem = 529 nm)—590 nm/529 nm—reflects the level of damage to the mitochondrial membrane.
Cells were seeded in black 96-well fluorometric microplates at a density of 10 × 10^3 cells/mL. […] Following treatment, the medium was removed, and the cell monolayers were washed twice with HBSS (140 mM NaCl, 5 mM KCl, 0.8 mM MgCl2, 1.8 mM CaCl2, 1 mM Na2HPO4, 10 mM HEPES, and 1% glucose). Then, 50 μL of a JC-1 solution in HBSS was added to each well, and the cells were incubated for 30 min in the dark at 37 °C (final JC-1 concentration 5 μM). After removing the fluorescent dye and replacing it with fresh HBSS, fluorescence measurements were taken using a Perkin-Elmer LS-5B spectrofluorometer (Perkin-Elmer LS-5B spectrofluorometer, Waltham, MA, USA). The excitation and emission wavelengths for JC-1 monomers were 514 nm and 529 nm, respectively, while for aggregates, they were 514 nm and 590 nm. The results were expressed as a percentage change in the fluorescence ratio of JC-1 aggregates to JC-1 monomers compared to the control, which was set at 100%.

Assay [5] deals with SW620. Put plainly: Cell cycle analysis via flow cytometry (propidium iodide). To be noted: compound at IC50, 24 h; for Increase in the G2/M phase cell fraction: vs control. How it is done:
The most commonly used fluorescent dyes for cell cycle analysis are fluorochromes that penetrate the cell membrane into the interior of permeabilized cells and bind stoichiometrically to DNA via intercalation, e.g., DAPI, propidium iodide (PI). The analysis is performed on cells fixed in ethanol. In this work, the cell cycle analysis was performed using the method described by Darzynkiewicz and Juan.
Cells (10 × 10^3) were seeded in 35 mm dishes and cultured in the medium for 24 h to attain the logarithmic growth phase. […] Subsequently, cells were trypsinized and centrifuged for 10 min at 400× g at 4 °C. The cell suspension in 100 μL of PBS was fixed in 1 mL of 70% ethanol (−20 °C) and stored at this temperature until analysis. Immediately before analysis, the ethanol-fixed cell suspension was centrifuged at 10,000 rpm for 10 min at 4 °C. The pellet was washed with cold (4 °C) PBS to remove residual ethanol, and the cell suspension was centrifuged again under the same conditions. A volume of 300 μL of PBS containing 4 mg/mL propidium iodide (final concentration 75 μM) and 1 mg/mL RNAse A (final concentration 20 μg/mL) was added to the cell pellet and incubated for at least 30 min at 37 °C in the dark. Stained cells were analyzed using a flow cytometer (Becton Dickinson, Franklin Lakes, NJ, USA), counting 10,000 cells in each sample. Data were analyzed using FlowJo 10.10 software (FlowJo, Williamson Way Ashland, OR, USA).
On the technique in general: Flow cytometry measures light scatter and fluorescence of single cells or particles in a stream.

Molecules are shown by their SMILES.

For `O=C1/C(=C/c2ccccc2)COc2ccccc21` [Compound 1], the “Increase in H2O2 levels” value in assay [1] stood at 10%. Besides, the “Increase in MDC fluorescence intensity (autophagy)” value in assay [2] was “approximately 20%”; in assay [3], “approximately 40%”. Also, the “Increase in mitochondrial membrane potential (hyperpolarization)” value in assay [4] is “approximately 40%”. Moreover, the “Change in cell cycle parameters or G2/M phase arrest” value in assay [5] is reported as “no statistically significant changes”.
Turning to `COc1cccc(/C=C2/C(=O)c3ccccc3OC2c2ccccc2)c1` (stereo not drawn) [Compound 3], in assay [1], the “Increase in H2O2 levels” value was found to be 10%. Moreover, in assay [2], the “Decrease in MDC fluorescence intensity” value is 20%. In assay [3], the “Change in MDC fluorescence intensity” value is given as “no significant changes”. For the same compound, the “Increase in mitochondrial membrane potential (hyperpolarization)” value in assay [4] is around 60%. For the same compound, the “Increase in the G2/M phase cell fraction” value in assay [5] is listed as “approximately 20%”.
As to `O=C1/C(=C/c2ccccc2)C(c2ccccc2)Oc2ccccc21` (stereo not drawn) [Compound 5], the “Effect on H2O2 levels” value in assay [1] is listed as “did not affect H2O2 levels”. In addition, the “Change in MDC fluorescence intensity” value in assay [2] is reported as “No significant changes”. In addition, in assay [3], the “Decrease in MDC fluorescence intensity” value came to 20%. For the same compound, the “Change in mitochondrial membrane potential ΔΨm” value in assay [4] is on record as “no statistically significant changes”. Moreover, the “Increase in the G2/M phase cell fraction” value in assay [5] is around 13%.
